The values that follow come from patent publication EP1344834A2, “Methods for the toxicity prediction of a compound” (F. HOFFMANN-LA ROCHE AG, priority 2002, dated 2003).

Read-outs that look alike come from different tables or passages of the source.

Data set [1] relates to expression profile in liver. The data set is described as follows: Support Vector Machine classification of liver expression profiles. Particulars: compounds not present in the initial training set; expression profiles of individual animals; Figures 8 and 9.
Description: Adult male Wistar rats were dosed in vivo and the resulting expression profile in liver was determined. SVMs were built for the discrimination between 3 different classes of hepatotoxicants, non-toxic substances and controls. The training set consisted of 180 gene expression profiles from individual animals treated with direct acting, cholestatic, steatotic, non-toxic compounds and corresponding vehicle-dosed controls. As a first step the chips were rescaled to a median value of 0 and a standard deviation of 1. […] Multi-class classification for a given test chip was then carried out by combining the outputs of all binary. classifiers. A leave-one-out cross validation procedure was applied to assess the quality of the trained machines with respect to the training data. […] By removing all replicates of one compound from the training data, followed by classifying these chips with the resulting decision function, the individual contribution of the given compound for a successful classifier could be examined. RFE was used to investigate the relationship between the number of genes for generating the classifiers, the resulting prediction accuracy, cross-validation errors and the number of used support vectors. The first iteration reduced the gene count to a multiple of 2. In each subsequent iteration the gene count was halved until 32 genes remained. […]
Another data set has as its system EGR-1. The data set is described as follows: Quantitative RT-PCR of EGR-1 in liver after in vivo dosing. Further details: species or system rats. Particulars: every 12 Hours, sacrificed 3 hours after the last administration, control = 1.0. On the procedure:
(§1) The quality of RNA was assessed with gel electrophoresis.
(§2) Tolcapone (Tasmar) is a human hepatotoxin with no known toxicity in the rat.

The next data set has as its system EGR1. The data set is described as follows: Gene expression analysis (GeneChip) of EGR1 after exposure of rats. It counts as in vivo. As to conditions: high inter-individual variability. On the procedure: as §1, §2
For the next data set, the system named is Gadd153. The data set is described as follows: Quantitative RT-PCR of GADD-family genes in liver after in vivo dosing. More on the design: species or system Wistar rats. Particulars: control = 1.0. As for the experimental part:
as §1
(§3) The induction of these genes correlates with the histopathological findings in a time related fashion: While PEG-3 seems to be an early marker, GADD-45 and […] appear regulated at later time points, when the tissue damage is obvious by conventional endpoints.

For the next data set, the system named is Gadd45. The description is as above. Further details: species or system Wistar rats. Particulars: control = 1.0. As for the experimental part:
as §1, §3

For another data set, the system named is PEG3. The description is as above. Particulars: control = 1.0. More on the design: species or system Wistar rats. As for the experimental part:
as §1, §3

The subject of data set [2] is genes from the GADD family. The data set is described as follows: RT-PCR confirmation of induction of GADD family genes by direct acting compounds. It counts as in vivo, Wistar rats. Particulars: rat liver (summary of Table 9). On the procedure: as §1, §3
The subject of data set [3] is AH-R. As to conditions: rat, in vivo.
Description: (§4) Male Wistar rats (generally 5 animals/dose-group) were purchased from BRL (Fullingsdorf, Switzerland) and housed individually. Treated animals were dosed either orally, intraperitoneally, or intravenously with several doses of test compounds (Table 1). The test compounds were categorized according to their toxic manifestation in the rat liver. Control animals received the same volume of vehicle as placebo. Necropsy was performed 6 or 24 hours after a single administration and liver samples from the left medial lobe were placed immediately in RNALater (Ambion, TX, USA) for RNA extraction and gene expression analysis. Samples in RNALater were stored at -20°C until further processing.
(§5) RNA isolation from hepatocytes was typically performed by resuspending approximately 3 Mio. Cells/1.2 mL RNAzol (Tel-Test Inc., TX, USA). […] Total RNA was isolated according to the manufacturer's instruction and quantified by measuring the optical density at 280 nm. The quality of RNA was assessed with gel electrophoresis.
(§6) The regulation of the mRNA levels of several candidate genes (Table 4) was verified with quantitative RT-PCR. […] For each performed RT-PCR reaction, the specificity of the assay was evaluated with dissociation curve software (Applied Biosystems), as well as by assessment of the size of the product using either gel electrophoresis or Agilent Bioanalyzer. […]
The subject of data set [4] is CYP2B2. As to conditions: rat, in vivo.
Description: as §4, §5, §6
The subject of data set [5] is AH-R. Particulars: rat, in vivo. This is another data set of the same source.
Description: as §4
(§7) RNA isolation from hepatocytes was typically performed by resuspending approximately 3 Mio. Cells/1.2 mL RNAzol (Tel-Test Inc., TX, USA). […] Total RNA was isolated according to the manufacturer's instruction and quantified by measuring the optical density at 280 nm. The quality of RNA was assessed with gel electrophoresis. […]
(§8) After hybridization and scanning, the expression level of each gene was calculated by subtracting the fluorescence intensity of the mismatch probes from the match signal (=average difference) using the [sequence] […] Gene expression data were further analyzed with an in-house-developed data analysis tool (RACE-A, Hoffmann-La Roche, Basel, Switzerland). […]
The test system of a further data set is PC3 (BTG2). As to conditions: rat, in vivo.
For data set [6], the system named is CYP2B2. As to conditions: rat, in vivo. This is another data set of the same source.
Description: as §4, §7, §8
Data set [7] concerns marker genes. Particulars: rat, in vivo.
Description: as §4, §5, §6
The next data set deals with CYP2B. The data set is described as follows: Western-blot of liver extracts with antibody specific for CYP2B. It counts as in vivo, rat. On the procedure: In addition, Western blots were performed using specific antibodies against the cytochrome P450 CYP2B family in order to evaluate if the clear induction of messenger RNA also led to an increase in the hepatic protein levels. […] This is due to the time lag between protein and mRNA induction (Fig. 11).

For data set [8], the system named is marker genes. The data set is described as follows: RT-PCR of marker genes, differentiation of toxic and non-toxic 5-HT6 receptor antagonists (Fig. 10). As to conditions: rat liver, some of the selected genes.
Description: as §4, §5, §6
[9] abbreviates: 4500 mmol/kg, sampling time 2 hours.
Setting [10] is: 4500 mmol/kg, sampling time 6 hours.
Setting [11] is: 4500 mmol/kg, sampling time 24 hours.
Setting [12] is: 10 mg/kg, sampling time 2 hours.
[13] abbreviates: 10 mg/kg, sampling time 6 hours.
Where [14] appears, read: 10 mg/kg, sampling time 24 hours.
Where [15] appears, read: 60 mg/kg, sampling time 2 hours.
The mark [16] stands for this setting: 60 mg/kg, sampling time 6 hours.
[17] abbreviates: 60 mg/kg, sampling time 24 hours.
Setting [18] is: 2 mg/kg, sampling time 24 hours.
[19] abbreviates: 50 mg/kg, sampling time 6 hours.

Description for PC3 (BTG2): as §4, §7, §8

On to `O=C(O)CCCCCCNC1c2ccccc2CCc2ccccc21` [amineptine], for which the “classification by support vector machines (identification of compound class)” value in [1] is recorded as “steatotic compound”.
Regarding `O=[N+]([O-])c1ccc(O)c([N+](=O)[O-])c1` [Dinitrophenol], the results for the “PCR EGR-1” value with EGR-1 (10 mg/kg administered three times) and in the data set on EGR-1 (30 mg/kg administered three times) were 3.4 fold induction and 8.5 fold induction, respectively. In addition, in the data set on EGR1 (10 and 30 mg/kg), the “induction of EGR1” value was “slight induction”.
Regarding `Cc1ccc(C(=O)c2cc(O)c(O)c([N+](=O)[O-])c2)cc1` [Tolcapone (Tasmar), Tolcapone], the “PCR EGR-1” value in the data set with EGR-1 (300 mg/kg administered three times) was 17.6 fold induction. Further, the “induction of EGR1” value with EGR1 (high dose 300 mg/kg) is “slight induction”.
As for `Clc1ccc(Cl)cc1` [1,4-dichlorobenzene], the “PCR Gadd153” value in the data set on Gadd153 (sampling time 2 hours) worked out at 1.0 fold induction; in the data set with Gadd153 (sampling time 6 hours), 0.9 fold induction; in the data set on Gadd153 (sampling time 24 hours) it was 2.4 fold induction. Besides, the “PCR Gadd45” value in the data set on Gadd45 (setting [9]) came to 1.7 fold induction; in the data set with Gadd45 (setting [10]) it was 0.8 fold induction; in the data set on Gadd45 (setting [11]), 7.2 fold induction. For the same compound, the “PCR PEG3” value in the data set with PEG3 (sampling time 2 hours) is on record as 0.8 fold induction; in the data set on PEG3 (sampling time 6 hours), 0.7 fold induction; with PEG3 (sampling time 24 hours) it was 4.2 fold induction.
Take `NN` [Hydrazine]: the “PCR Gadd153” value with Gadd153 (setting [12]) came to 2.2 fold induction; with Gadd153 (setting [13]), 4.0 fold induction; with Gadd153 (setting [14]), 0.4 fold induction; with Gadd153 (setting [15]), 1.0 fold induction; with Gadd153 (setting [16]) it was 0.9 fold induction; with Gadd153 (setting [17]) it was 1.7 fold induction. The “PCR Gadd45” value stood at 1.1 fold induction in the data set on Gadd45 (setting [12]); 9.9 fold induction in the data set with Gadd45 (setting [13]); 0.2 fold induction in the data set on Gadd45 (setting [14]); 1.0 fold induction in the data set with Gadd45 (setting [15]); 1.8 fold induction in the data set with Gadd45 (setting [16]); 1.0 fold induction in the data set with Gadd45 (setting [17]). Also, the “PCR PEG3” value with PEG3 (setting [12]) stood at 3.4 fold induction; with PEG3 (setting [13]) it was 6.3 fold induction; with PEG3 (setting [14]), 2.1 fold induction; in the data set on PEG3 (setting [15]) it was 20.4 fold induction; in the data set on PEG3 (setting [16]), 3.8 fold induction; in the data set with PEG3 (setting [17]), 11.9 fold induction. In addition, the “induction of genes from the GADD family, namely GADD-45, GADD-153 and PEG-3” value (shortened to “induction of genes from the GADD family”) in data set [2] is given as “induction”.
As to `Clc1ccccc1Cl` [1,2-dichlorobenzene], the entries for the “PCR Gadd153” value in the data set on Gadd153 (sampling time 2 hours), in the data set with Gadd153 (sampling time 6 hours) and with Gadd153 (sampling time 24 hours) were 0.9 fold induction, 0.6 fold induction and 27.9 fold induction, respectively. In addition, the “PCR Gadd45” value came to 2.3 fold induction in the data set with Gadd45 (setting [9]), 4.9 fold induction with Gadd45 (setting [10]) and 53.0 fold induction in the data set on Gadd45 (setting [11]). The “PCR PEG3” value is 3.9 fold induction with PEG3 (sampling time 2 hours), 1.9 fold induction in the data set with PEG3 (sampling time 6 hours) and 54.6 fold induction in the data set with PEG3 (sampling time 24 hours). The “induction of genes from the GADD family” value in [2] is listed as “induction”. The “classification by support vector machines (identification of compound class)” value in [1] is “direct acting compound”.
`Nc1ccc(S(=O)(=O)c2cc(Br)nc(N3CCCC3)c2)cc1` [Ro66-0074, 4-(2-Bromo-6-pyrrolidin-1-yl-pyridine-4-sulfonyl)-phenylamine]: the “AH-R RT-PCR” value is recorded as 1.7 in the data set with AH-R [3] (360 min) and 1.2 in the data set on AH-R [3] (1440 min). The “CYP2B2 RT-PCR” value worked out at 8.4 in the data set with CYP2B2 [4] (360 min) and 1.3 in the data set on CYP2B2 [4] (1440 min). In addition, the “AH-R Affymetrix” value with AH-R [5] (360 min) and with AH-R [5] (1440 min) was 1.0 in each case. The “PC3 (BTG2) Affymetrix” value is 0.4 in the data set with PC3 (BTG2) (360 min) and 0.6 with PC3 (BTG2) (1440 min). Besides, the “CYP2B2 Affymetrix” value in the data set with CYP2B2 [6] (360 min) is on record as -1.2; in the data set on CYP2B2 [6] (1440 min) it was 1.1. In addition, the “expression levels of few marker genes (RT-PCR, Fig. 10)” value in the data set with marker genes [7] was “slight induction”.
For “(4-Amino-N-(6-bromo-1 H -indol-4-yl)-benzenesulfonamide [Ro65-7199]”, the “induction of CYP2B (hepatic protein levels, Western blot)” value in the data set with CYP2B (6 hours after administration) is listed as “could not be detected”. In addition, the “protein levels of CYP2B (Western blot)” value with CYP2B (24 hours and 7 days after treatment) is reported as “closely paralleled the amounts of mRNA”. Also, in the data set with marker genes [8], the “expression levels of few marker genes (RT-PCR, Fig. 10)” value is listed as “larger effect”.
Consider `CCN(CC)C(=O)/C(C#N)=C/c1cc(O)c(O)c([N+](=O)[O-])c1` [Entacapone], for which the “PCR EGR-1” value with EGR-1 (600 mg/kg administered three times) was 1.0 fold induction.
For the compound `CC(=N)S` [Thioacetamide], the “PCR Gadd153” value in the data set with Gadd153 (2 mg/kg, sampling time 6 hours) is 0.9 fold induction; with Gadd153 (setting [18]), 0.0 fold induction; in the data set with Gadd153 (setting [13]) it was 1.3 fold induction; with Gadd153 (setting [14]) it was 0.9 fold induction; in the data set with Gadd153 (setting [19]), 2.5 fold induction. The “PCR Gadd45” value in the data set with Gadd45 (2 mg/kg, sampling time 6 hours) is given as 8.1 fold induction; in the data set on Gadd45 (setting [18]) it was 0.0 fold induction; in the data set on Gadd45 (setting [13]), 2.9 fold induction; with Gadd45 (setting [14]), 1.7 fold induction; in the data set on Gadd45 (setting [19]), 27.6 fold induction. In addition, the “PCR PEG3” value is on record as 2.0 fold induction with PEG3 (2 mg/kg, sampling time 6 hours); 0.9 fold induction in the data set with PEG3 (setting [18]); 1.9 fold induction with PEG3 (setting [13]); 0.5 fold induction with PEG3 (setting [14]); 7.8 fold induction in the data set with PEG3 (setting [19]). Further, in data set [2], the “induction of genes from the GADD family” value was “induction”.
